Key:
[1] = target: CLK2 kinase (Homo sapiens, UniProt P49760); assay: CLK2 kinase activity assay (Z-lyte FRET); type: biochemical; settings: Z-lyte Ser/Thr 6 peptide, 60 μM ATP, 1 h at room temperature;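 also: FRET read-out as coumarin to fluorescein emission ratio, unphosphorylated peptide as 0% and phosphorylated peptide as 100% controls, duplicate reactions, non-linear regression fit of dose-response curves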
[2] = system: MMP-3 levels in supernatant of chondrocytes stimulated with IL1-β; assay: Chondrocyte protection assay compound screening (MMP-3 LANCE Ultra); type: cell-based, human; settings: Homo sapiens, Chondrocyte, IL1-β 10 ng/mL overnight, 11-point curves from 3 μM to 0.05 nM; for Emax: read-out: Maximum % Inhibition
Method: Human Chondrocyte Cell Culture: Primary human chondrocytes were purchased from Lonza (Walkersville, Md.) and expanded in Chondrocyte Growth Media (CGM, Lonza). Cells between passage 2 and 5 were used for the experiments.
Chondrocytes were plated at 8,000 cells/well in 40 μL/well Chondrocyte Differentiation Medium (Lonza; 500 mL Basal Medium, 25 mL FBS, 0.5 mL GA-1000, 1 mL R3-IGF, 2.5 mL bFGF, 0.5 mL Transferrin, and 1 mL Insulin). After 2 hours of incubation at 37° C. and 5% CO2, IL1-β (Peprotech, Rocky Hill, N.J.) was added to a final concentration of 10 ng/mL. 11 wells in 1 row were left unstimulated for normalization and calculating EC50 values. Cells were incubated at 37° C. and 5% CO2 overnight. Assay plates are spun, 25 μl of supernatant media was collected using (S2 pipettor, Apricot Designs). Cells were lysed using 10 μL of (Cell Titer-Glo, Promega). Luminescent signal detected using an En Vision Multilabel reader (Perkin Elmer). MMP-3 levels were measured in supernatant. Supernatant diluted 1:7 in DMEM. MMP-3 levels in the supernatant were measured using MMP-3 LANCE Ultra detection kit (Perkin Elmer). Briefly, 5 μL of diluted supernatant was transferred to low-volume 384 well plates using (S2 pipettor, Apricot Designs). A standard curve was prepared using MMP-3 analyte (range […]). 1.7 μL of 8× mix of Eu-labelled anti-MMP-3 antibody and ULight labelled anti-MMP-3 antibody was added to the plates using Mantis Liquid handler (Formulatrix). Plates were incubated overnight at room temperature. LANCE signal was detected using an EnVision Multilabel reader (Perkin Elmer), equipped with TR-FRET using excitation wavelength of 320 nm and two emission wavelengths of 615 nm and 665 nm. Data was analyzed according to the kit protocol, using the ratio of […] and the standard curve values were used to calculate the amount of MMP3 in the […] (in pg/ml). The normalized averages (fold change over IL1-β stimulated) for each compound concentration were calculated. EC50 and maximum % inhibition values were calculated using the dose-response nonlinear regression curve-fit in Dotmatics.

[3] = system: Wnt pathway activity (SW480 colon carcinoma cells stably expressing the Sp5-Luc reporter); assay: Wnt pathway activity screening assay (Sp5-Luc reporter gene assay); settings: Homo sapiens, SW480, Table 4; SW480 cells stably expressing Sp5-Luc reporter, 10-point dose-response from 10 μM, 36 to 48 hours
[4] = system: primary human mesenchymal stem cells (hMSCs); assay: Chondrogenesis screening using primary human mesenchymal stem cells; type: cell-based; settings: Homo sapiens, Mesenchymal stem cells, hMSC chondrogenesis; for Emax: maximum activity relative to TGF-β3 (10 ng/mL) positive control, read-out: Max. Activity as % TGF-β3 activity; for EC50: concentration required to induce 50% levels of chondrogenesis with TGF-β3 as positive control, read-out: Conc (nM) of 50% TGF-β3 activity
In short: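 Primary hMSCs at passage 3–6 were treated across compound concentrations, with TGF-β3 as positive control. Chondrogenic nodule area per well was normalized to 3 DMSO wells on the same plate (fold over DMSO, 2–3 replicates). EC50, maximum activity and the dose reaching it were derived.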

[5] = target: CLK3 kinase (Homo sapiens, UniProt P49761); assay: CLK3 kinase activity assay (Z-lyte FRET); type: biochemical; settings: Z-lyte Ser/Thr 18 peptide, 156 μM ATP, 1 h at room temperature;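 also: kinase activity read as coumarin/fluorescein emission ratio by FRET, unphosphorylated peptide as 0% and phosphorylated peptide as 100% control, values from non-linear regression of dose-response curves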
Sequence of CLK3 kinase (P49761 whole entry): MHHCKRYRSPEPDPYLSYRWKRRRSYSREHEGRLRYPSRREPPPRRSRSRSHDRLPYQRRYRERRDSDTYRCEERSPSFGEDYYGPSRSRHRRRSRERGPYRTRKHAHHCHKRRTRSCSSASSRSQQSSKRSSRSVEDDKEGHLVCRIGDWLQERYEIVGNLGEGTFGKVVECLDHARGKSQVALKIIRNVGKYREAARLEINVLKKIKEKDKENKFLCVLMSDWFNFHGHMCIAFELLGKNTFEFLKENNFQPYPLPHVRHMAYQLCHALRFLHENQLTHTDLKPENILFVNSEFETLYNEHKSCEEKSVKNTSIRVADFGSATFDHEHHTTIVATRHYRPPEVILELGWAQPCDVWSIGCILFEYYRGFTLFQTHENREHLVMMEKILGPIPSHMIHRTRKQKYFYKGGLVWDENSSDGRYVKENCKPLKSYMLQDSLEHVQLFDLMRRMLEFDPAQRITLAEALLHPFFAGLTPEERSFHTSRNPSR

Sequence of CLK2 kinase (P49760 whole entry): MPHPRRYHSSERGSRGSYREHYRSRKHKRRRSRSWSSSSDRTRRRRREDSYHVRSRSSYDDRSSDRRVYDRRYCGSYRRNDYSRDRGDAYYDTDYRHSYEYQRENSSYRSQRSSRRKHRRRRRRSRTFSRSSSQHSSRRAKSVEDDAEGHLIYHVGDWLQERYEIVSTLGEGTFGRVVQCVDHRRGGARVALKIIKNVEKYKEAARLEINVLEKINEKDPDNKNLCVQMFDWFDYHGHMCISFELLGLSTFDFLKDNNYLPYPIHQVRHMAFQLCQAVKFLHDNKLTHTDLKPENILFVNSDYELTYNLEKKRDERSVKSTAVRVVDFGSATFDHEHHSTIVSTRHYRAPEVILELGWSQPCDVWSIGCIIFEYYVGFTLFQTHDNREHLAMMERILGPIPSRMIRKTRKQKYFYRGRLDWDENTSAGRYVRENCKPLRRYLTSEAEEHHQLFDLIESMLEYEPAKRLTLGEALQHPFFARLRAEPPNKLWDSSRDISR

| SMILES | EC50 [1] | EC50 [3] | EC50 [5] | EC50 [4] | EC50 [2] | Emax [2] | Emax [4] |
| --- | --- | --- | --- | --- | --- | --- | --- |
| CS(=O)(=O)NCc1cc(F)cc(-c2nccc3[nH]c(-c4n[nH]c5ncc(-c6cncc(NC(=O)C7CCC7)c6)cc45)cc23)c1 [compound 528] | 5 nM | 3640 nM | 59 nM | 300 nM | – | – | 51.6% |
| CS(=O)(=O)NCc1cc(F)cc(-c2cncc3[nH]c(-c4n[nH]c5cnc(-c6cncc(NC(=O)C7CCC7)c6)cc45)cc23)c1 [compound 529] | 8 nM | > 10000 nM | 188 nM | – | – | – | 15.5% |
| CS(=O)(=O)NCc1cc(F)cc(-c2nccc3[nH]c(-c4n[nH]c5ccc(-c6cncc(NC(=O)Cc7ccccc7)c6)nc45)cc23)c1 [compound 530] | 17 nM | > 10000 nM | 151 nM | 10 nM | – | – | 110% |
| CCNCc1cncc(-c2ccc3[nH]nc(-c4cc5c(-c6cc(F)cc(CNS(C)(=O)=O)c6)cncc5[nH]4)c3c2)c1 [compound 531] | 5 nM | > 10000 nM | 52 nM | – | – | – | 58% |
| CCNCc1cncc(-c2cnc3[nH]nc(-c4cc5c(-c6cc(F)cc(CNS(C)(=O)=O)c6)nccc5[nH]4)c3c2)c1 [compound 532] | 3 nM | > 10000 nM | 305 nM | 300 nM | – | – | 61.2% |
| CS(=O)(=O)NCc1cc(F)cc(-c2nccc3[nH]c(-c4n[nH]c5cnc(-c6cncc(CNCC7CCCC7)c6)cc45)cc23)c1 [compound 534] | 4 nM | > 10000 nM | 471 nM | 30 nM | – | – | 52.3% |
| CS(=O)(=O)NCc1cc(F)cc(-c2nccc3[nH]c(-c4n[nH]c5ncc(-c6cncc(OCc7ccccc7)c6)cc45)cc23)c1 [compound 537] | 13 nM | 3990 nM | 329 nM | – | – | – | 20.6% |
| Fc1cccc(-c2cncc3[nH]c(-c4n[nH]c5ccc(-c6cnccn6)nc45)nc23)c1 [compound 625] | 5 nM | > 10000 nM | – | – | ≥ 3000 nM | 70.9% | – |
| COc1cccc(-c2cncc3[nH]c(-c4n[nH]c5ccc(-c6cncc(NC(=O)C7CCCCC7)c6)nc45)nc23)c1 [compound 627] | 7 nM | > 10000 nM | – | – | ≥ 3000 nM | 90.7% | – |
| Fc1ccc(-c2cccc3[nH]c(-c4n[nH]c5ccc(-c6cncnc6)nc45)nc23)cc1 [compound 628] | 5 nM | > 10000 nM | – | – | ≥ 3000 nM | 54.3% | – |
| O=C(Nc1cncc(-c2ccc3[nH]nc(-c4nc5c(-c6ccccn6)ccnc5[nH]4)c3n2)c1)c1ccccc1 [compound 630] | 8 nM | > 10000 nM | – | – | 5.1 nM | 67% | – |
| COc1cncc(-c2ccc3[nH]nc(-c4nc5c(N6CCCCC6)ccnc5[nH]4)c3n2)c1 [compound 632] | 3 nM | > 10000 nM | – | – | 123 nM | 72.2% | – |
| Fc1ccc(-c2cccc3[nH]c(-c4n[nH]c5ncc(-c6cncc(CN7CCCCC7)c6)cc45)cc23)cc1 [compound 634] | 8 nM | 3660 nM | – | – | 46.1 nM | 83.8% | – |
| CN(C)CCNc1cc(F)cc(-c2cccc3[nH]c(-c4n[nH]c5ncc(-c6ccncc6)cc45)cc23)c1 [compound 635] | 10 nM | 6070 nM | – | – | 4 nM | 78.5% | – |
| O=C(Nc1cc2cc(-c3cncs3)ccc2cn1)C1(F)CCCCC1 [compound 637] | 1900 nM | > 10000 nM | – | – | ≥ 3000 nM | 39.1% | – |
| CN1CCC(C(=O)Nc2cc3cc(-c4cnsc4)cnc3cn2)CC1 [compound 639] | – | > 10000 nM | – | – | ≥ 3000 nM | 43.7% | – |
| O=C(Nc1cc2cc(-c3cnco3)cnc2cn1)C1CCNCC1 [compound 641] | – | > 10000 nM | – | – | 35.8 nM | 48.4% | – |

Further molecules by falling EC50 [3], results first:

| EC50 [1] | EC50 [3] | EC50 [5] | EC50 [4] | SMILES | EC50 [2] | Emax [2] | Emax [4] |
| --- | --- | --- | --- | --- | --- | --- | --- |
| 18 nM | 3570 nM | – | – | COc1cncc(C#Cc2c[nH]nc2C(=O)Nc2ccc(OC3CCN(C)CC3)nc2)c1 [compound 30] | ≥ 3000 nM | 3.4% | – |
| 10 nM | 3380 nM | – | – | O=C(Nc1cncc(-c2ccc3[nH]nc(-c4nc5c(-c6cccs6)cccc5[nH]4)c3n2)c1)C1CC1 [compound 631] | 6.7 nM | 72% | – |
| 6 nM | 1850 nM | 53 nM | – | CS(=O)(=O)NCc1cc(F)cc(-c2cncc3[nH]c(-c4n[nH]c5ncc(-c6cncc(CN7CCCCC7)c6)cc45)cc23)c1 [compound 535] | – | – | 22.7% |
| – | 1390 nM | – | – | O=C(NC1C[C@@H]1c1ccccc1)c1n[nH]c2ccc(-c3cccnc3)cc12 (stereo partly drawn) [compound 59] | 1.6 nM | 99.2% | – |
| 38 nM | 1270 nM | – | – | O=C(Nc1cccnc1)c1n[nH]cc1C#Cc1cncc(OC2CCNCC2)c1 [compound 32] | 0.2 nM | 77.8% | – |
| 28 nM | 1210 nM | – | – | COc1cncc(C#Cc2c[nH]nc2C(=O)Nc2ccc(OCCN3CCCC3)nc2)c1 [compound 31] | ≥ 3000 nM | 2.4% | – |
| 5 nM | 1100 nM | 79 nM | 10 nM | CS(=O)(=O)NCc1cc(F)cc(-c2nccc3[nH]c(-c4n[nH]c5ccc(-c6cncc(CN7CCCCC7)c6)nc45)cc23)c1 [compound 536] | – | – | 50.1% |
| 9 nM | 1080 nM | – | – | O=C(Nc1cncc(-c2ccc3[nH]nc(-c4nc5c(-c6cccc(F)c6)cccc5[nH]4)c3n2)c1)C1CC1 [compound 629] | 0.2 nM | 70% | – |
| – | 1030 nM | – | – | O=C(NC1C[C@@H]1c1ccccc1)c1n[nH]c2ccc(-c3cncc(CN4CCCCC4)c3)cc12 (stereo partly drawn) [compound 76] | 0.4 nM | 97.9% | – |
| 2 nM | 1030 nM | 58 nM | 10 nM | CS(=O)(=O)NCc1cc(F)cc(-c2cncc3[nH]c(-c4n[nH]c5ccc(-c6cncnc6)nc45)cc23)c1 [compound 538] | – | – | 106% |
| – | 809 nM | – | – | Cc1n[nH]c2ccc(-c3cncc(NC(CO)Cc4cccc(C(F)(F)F)c4)n3)cc12 (stereo not drawn) [compound 51] | ≥ 3000 nM | 48.1% | – |
| 95 nM | 679 nM | – | – | O=C(Nc1cccnc1)Nc1c[nH]nc1C(=O)Nc1ccc(C(F)(F)F)nc1 [compound 16] | 8.7 nM | 99.5% | – |
| – | 630 nM | – | – | Cc1n[nH]c2cc(F)c(-c3cncc(OC4CCNC[C@@H]4F)n3)cc12 (stereo partly drawn) [compound 46] | 1050 nM | 100% | 43.8% |
| 2 nM | 577 nM | 12 nM | 5000 nM | CN1CCCCN(C)c2nccc3[nH]c(nc23)-c2n[nH]c3ccc(cc23)-c2cncc(c2)C1 [compound 617] | – | – | 231% |
| – | 262 nM | – | – | Cc1n[nH]c2ccc(-c3cncc(OC[C@@H](N)Cc4ccccc4)c3)cc12 [compound 35] | ≥ 3000 nM | 99.3% | – |
| 9 nM | 97 nM | – | – | O=C(Nc1cncc(-c2cc3c(-c4cc5c(-c6cccc(F)c6)ccnc5[nH]4)n[nH]c3cn2)c1)C1CC1 [compound 636] | 298 nM | 64.5% | – |
| 2 nM | 41.8 nM | 12 nM | 200 nM | c1cc2cc(c1)-c1cncc3[nH]c(nc13)-c1n[nH]c3ccc(cc13)-c1cncc(c1)CNC2 [compound 618] | – | – | 558% |
